Experiments:
[1] = UV/Vis absorption spectra upon addition of metal ions; assay type: physicochemical; conditions: Cu^2+ 50.0 equiv; HEPES/CH3CN pH 7.2
Method: The photophysical properties of bi-julolidine compounds were investigated by monitoring the absorption spectral behavior upon addition of several metal ions such as Li^+, Na^+, Ba^2+, Sr^2+, Mg^2+, Al^3+, Ca^2+, Mn^2+, Fe^2+, Co^2+, Ni^2+, Zn^2+, Ag^+, Cd^2+, Hg^2+, Pb^2+ and Cu^2+ in an aqueous buffer medium (50 mM, 2-(4-(2-hydroxyethyl)-1-piperazin-yl)ethanesulfonic acid (HEPES)/CH3CN, 6:4, v/v; pH 7.2). […] With the addition of 50.0 equivalents of Co^2+, Ni^2+and Zn^2+, the absorbance intensity decreased and slightly red shifted to different extents (Ni^2+=408.5 nm; Zn^2+=410 nm; Co^2+=409 nm).
Representative examples are shown in FIG. 1 and FIG. 2 using compound 1 and 2, respectively.

[2] = UV/Vis absorption and colorimetric titration with increasing concentrations of Cu^2+; assay type: physicochemical; conditions: for extinction coefficient (ε) in the NIR region at maximum: at the Cu^2+ equivalents giving maximum NIR absorbance; for extinction coefficient (ε) at 570 nm at maximum: at the Cu^2+ equivalents giving maximum absorbance at 570 nm; for NIR λmax at maximum absorbance / final solution color: end of the Cu^2+ titration; for visual color change of solution: increasing concentration of Cu^2+ ions; for NIR band λmax / new absorption band in the visible region (λmax): on first appearance in the Cu^2+ titration (1.0 to 2.0 equivalents); for Cu^2+ added at which absorbance at 570 nm reached a maximum / Cu^2+ added at which absorbance in the NIR region reached a maximum: sequential titration, pH 7.2
Method: The spectral and colorimetric properties of bi-julolidine compounds were investigated by monitoring the absorption spectral behavior upon addition of increasing concentrations of Cu^2+ in an aqueous buffer medium (50 mM, 2-(4-(2-hydroxyethyl)-1-piperazin-yl)ethanesulfonic acid (HEPES)/CH3CN, 6:4, v/v; pH 7.2). During sequential titration, the absorption spectra of julolidine-carbonohydrazone compound in the visible region gradually shifted from 380 nm to 412 nm with the addition of 1.5 equivalents of Cu^2+ and the colorless solution turned to light green. Increasing the concentration of Cu^2+ in the solution of julolidine-carbonohydrazone compound from 1.5 to 2.0 equivalents led to a change in the solution color from light green to light purple. A new absorption band (λmax=570 nm) appeared in the visible region accompanied by a distinguishable NIR band with λmax centered at 930 nm. The absorbance at 570 nm reached a maximum upon addition of 6.0 equivalents of Cu^2+ with an extinction coefficient (ε) of 2×10^4 M^−1cm^−1 and then decreased with further addition of Cu^2+. The absorbance in the NIR region reached a maximum (ε=5.2×10^4 M^−1cm^−1) upon addition of a total of 8.0 equivalents of Cu^2+ with a gradual shift of λmax from 930 nm to 825 nm, and that remained unchanged upon further addition of Cu^2+. The final solution color of julolidine-carbonohydrazone compound was aqua colored.
During sequential titration of Cu^2+ with julolidine-thiocarbonohydrazone compound, two absorption bands appeared at 570 nm and 980 nm, after addition of 1.0 equivalent of Cu^2+. At that concentration of Cu^2+ ions, the color of the solution of julolidine-thiocarbonohydrazone compound changed from greenish to light purple. The absorbance at 570 nm and 980 nm were enhanced when Cu^2+ concentrations increased from 1.5 to 2.0 equivalents and the purple-colored solution turned to light violet. The absorbance at 570 nm reached a maximum at 5.0 equivalents of Cu^2+ with an extinction coefficient (ε) of 2×10^4 M^−1 cm^−1 and a consequent increase in the intensity of the NIR absorption band was observed. At that concentration of Cu^2+ ions, The solution color of julolidine-thiocarbonohydrazone compound changed from light violet to blue. […] The final solution color of julolidine-thiocarbonohydrazone compound was greenish aqua.

[3] = Specificity of Schiff-base compounds towards Cu^2+ ions (absorption spectra); assay type: physicochemical; conditions: for absorption band: absence of Cu^2+ ions; for characteristic absorbance in the NIR region / characteristic absorbance in the visible region: presence of Cu^2+ ions
Method: The specificity of bi-julolidine Schiff-base compounds, compound 1 and compound 2, in detecting Cu^2+ ions were investigated by monitoring the absorption spectral behavior of the compounds. The experiment was also performed using other Schiff-base compounds that were prepared by condensing different salicylaldehyde derivatives with carbohydrazide and thiocarbohydrazide (compounds 3-8, shown below).

HEK 293T cells = assay: Detection of Cu^2+ ions in cells using fluorescence microscopy; assay type: cell-based
Method: HEK 293T cells were grown to 50% confluency in a 30 mm dish containing Dulbecco's modified eagle medium (DMEM) and 10% fetal bovine serum (FBS) at 37° C. and 5% CO2. The cells were washed three times with phosphate-buffered saline (PBS) and stained with julolidine-thiocarbonohydrazone compound (10 μM final concentration) in the growth media without FBS for 10 minutes. The adherent cells were washed three times with PBS to remove excess compound. […] Further, the excess of Cu—(ClO4)2.6H2O was washed off with PBS and then supplemented with EDTA (10 μM) in DMEM without FBS for 10 minutes.

[4] = Fluorometric detection of copper ions; assay type: physicochemical; conditions: for fluorescence emission: excitation at 430 nm, no metal ion
Method: The fluorometric behavior of julolidine-thiocarbonohydrazone compound was studied upon addition of 20.0 equivalents of Li^+, Na^+, Ba^2+, Sr^2+, Mg^2+, […], Ca^2+, Mn^2+, Fe^2+, CO^2+, Ni^2+, Zn^2+, Ag^+, Cd^2+, Hg^2+, Pb^2+ and Cu^2+ in an aqueous buffer medium (50 mM, 2-(4-(2-hydroxyethyl)-1-piperazin-yl)ethanesulfonic acid (HEPES)/CH3CN, 6:4, v/v; pH 7.2). […] The quenched fluorescence of julolidine-thiocarbonohydrazone compound was restored upon treating the julolidine-thiocarbonohydrazone compound —Cu^2+ complex with ethylenediaminetetraacetic acid (EDTA). Fluorescence emission of compound 2 with sequential addition of increasing concentrations (0 to 50 μM) of Cu^2+ is shown in FIG. 5B.

Row | SMILES | characteristic absorbance in the NIR region [1] | characteristic absorbance in the visible region [1] | extinction coefficient (ε) in the NIR region at maximum [2] | extinction coefficient (ε) at 570 nm at maximum [2] | NIR λmax at maximum absorbance [2] | final solution color [2] | visual color change of solution [2] | NIR band λmax [2] | new absorption band in the visible region (λmax) [2] | Cu^2+ added at which absorbance at 570 nm reached a maximum [2] | Cu^2+ added at which absorbance in the NIR region reached a maximum [2] | absorption band [3] | characteristic absorbance in the NIR region [3] | characteristic absorbance in the visible region [3] | further results
1 | O=C(N/N=C/c1cc2c3c(c1O)CCCN3CCC2)N/N=C/c1cc2c3c(c1O)CCCN3CCC2 [compound 1, julolidine-carbonohydrazone] | 823 nm | 495 nm | 52000 M⁻¹ cm⁻¹ | 20000 M⁻¹ cm⁻¹ | 825 nm | aqua colored | light green, then to light purple, and then to aqua color | 930 nm | 570 nm | 6.0 equivalents | 8.0 equivalents | around 380 nm | 825 nm | 495 nm | absorption in the visible region, shifted from 380 nm ([2]; addition of 1.5 equivalents of Cu^2+): 412 nm
2 | Oc1c(/C=N/NC(=S)N/N=C/c2cc3c4c(c2O)CCCN4CCC3)cc2c3c1CCCN3CCC2 [compound 2, julolidine-thiocarbonohydrazone] | around 820 nm | 570 nm | 52000 M⁻¹ cm⁻¹ | 20000 M⁻¹ cm⁻¹ | 820 nm | greenish aqua | from light green to light violet, then to light blue and then to greenish aqua | 980 nm | 570 nm | 5.0 equivalents | 15.0 equivalents | around 380 nm | 825 nm | 570 nm | fluorescence in cells after staining (HEK 293T cells; 10 μM, 10 minutes, HEK 293T): presence of fluorescent julolidine-thiocarbonohydrazone compound in cells; intracellular fluorescence after Cu^2+ supplementation (HEK 293T cells; Cu(ClO4)2.6H2O 10 μM, 10 minutes): complete suppression of intracellular fluorescence; intracellular fluorescence after EDTA (HEK 293T cells; EDTA 10 μM, 10 minutes, after Cu^2+ was washed off): recovery of intracellular fluorescence; cell permeability (HEK 293T cells; HEK 293T living cells): cell-permeable; fluorescence emission in the presence of other metal ions ([4]; 20.0 equivalents of Li+, Na+, Ba2+, Sr2+, Mg2+, Ca2+, Mn2+, Fe2+, Co2+, Ni2+, Zn2+, Ag+, Cd2+, Hg2+, Pb2+): no significant changes; fluorescence intensity around 535 nm in the presence of Cu^2+ ([4]; 430 nm excitation, 20.0 equivalents of Cu^2+): quenched; quenched fluorescence after treating the Cu^2+ complex with EDTA ([4]; EDTA): restored; fluorescence emission [4]: about 535 nm; fluorescence emission ([4]; listed as Julolidine-thiocarbonohydrazone compound): around 535 nm
